Results on 4 compounds are retold here after US12534762B2, “Treating atopic dermatitis by targeting the WNT pathway” (Children's Medical Center Corporation, priority 2018, dated 2026).

SMILES strings stand for the structures. “Also recorded” adds a separate entry of the source. Peptide text beside a SMILES is read from it. * marks the point of attachment. Cbz = O=C(OCc1ccccc1)*

In one test the test system is FZD5. Kind of test: Immunoblot of FZD5 (immature and mature forms) with lysosome/proteasome inhibitors. It counts as cell-based, human. To be noted: HEK293T cells; for levels of immature and mature forms of FZD5: absence or presence of TMEM79; for TMEM79-induced degradation of immature FZD5: TMEM79 overexpressed. Here is the method: Cell culture, immunofluorescence, RNA interference and dual luciferase assay. HEK293T cells (ATCC #CRL-11268) and its derivatives were maintained in DMEM supplemented with 10% FBS, penicillin, and streptomycin. ZRKO (ZNRF3 and RNF43 double knockout) cell line was a gift from F. Cong. The FZD null cell line (Fz1-10 knockout) was a gift from B. Vanhollebeke. For immunofluorescence, HEK293T cells were grown on poly-L-lysine-coated glass coverslips. Cells were transfected with Snap-FZD5 and after 24 hours washed with PBS and fixed with 4% paraformaldehyde for 10 min at room temperature. The cells were labeled with 1 μM SNAP-Surface® 488 (BioLabs) for 15 min at room temperature. To visualize endogenous TMEM79, PDI, TGN46 and EEA1, cells were permeabilized with 0.2% Triton X-100 in PBS for 5 min, blocked with 10% normal goat serum and then incubated with respective antibodies for 1 hour at room temperature followed by incubation with secondary antibodies (Alexa Fluor 594 goat anti-rabbit immunoglobulin and Alexa Fluor 488 goat anti-mouse immunoglobulin, Invitrogen). Cells were mounted in Prolong Diamond Antifade Mountant with DAPI (Thermofisher Scientific) and imaged using a Zeiss LSM700 confocal microscope. siRNA transfection was done using Lipofectamine RNAiMAX (Thermofisher Scientific, #13778075). Duplex siRNAs targeting TMEM79 and ZNRF3 were purchased from Sigma. The sequences are as follows: TMEM79-1, 5-[…]dTdT-3 (SEQ ID NO: 19), TMEM79-2, 5-CCAUGAGUUCCCGCCUGAUdTdT-3 (SEQ ID NO: 20). ZNRF3, 5-[…]dTdT-3 (SEQ ID NO: 21). For Top-Flash reporter assay, cells were transduced sequentially with Supertopflash (7TFP, Addgene) and EF1α-Renilla lentiviruses. Cells were plated in 24 well plates and transfected the following day in triplicate using FuGENE HD (Promega, #E2312). Dual luciferase reporter assays were performed using Dual-Luciferase® Reporter Assay System (Promega, #E1960) according to manufacturer's instruction. Representative results are shown from one of three (or more) independent experiments. Immunoblotting, cell surface protein labeling and immunoprecipitation. Total cell lysates in NP40 lysis buffer (50 mM Tris, pH 7.5, 150 mM NaCl, 1 mM EDTA, 1% NP40, 10% glycerol, 10 mM NaF, and protease inhibitor cocktail, pH=7.4) were prepared by gentle rotating at 4° C., followed by centrifugation at top speed for 10 min at 4° C. Samples were run on a SDS-PAGE and transferred to Immobilon-P membrane. To isolate the cytoplasmic fraction of β-catenin, cells were incubated with 0.015% digitonin (in PBS supplemented protease inhibitor cocktail) by gentle rotating at 4° C. for 10 min. Indirect immunochemistry using a secondary antibody conjugated with horseradish peroxidase was visualized using ECL reagents on LAS-4000 imager (FujiFilm). Cell surface proteins were biotinylated using EZ-LinkTMSulfo-NHS—SS-Biotin (Thermo Fisher Scientific) according to manufacturer's protocol. Biotinylated proteins were enriched by Pierce® Streptavidin agarose resins. For immunoprecipitation, transfected HEK293T cells were lysed in NP40 lysis buffer. Cell lysates were incubated with antibody conjugated Agarose beads (Pierce™ Anti-c-Myc Agarose, #20168; Pierce™ Anti-HA Agarose, #26181; Anti-Flag M2 affinity gel, Sigma, A2220; Anti-V5 Agarose Affinity Gel, Sigma, A7345) at 4° C. over night. Beads were washed with lysis buffer 5 times and proteins were eluted in 2× sample buffer.
Background: Immunoblotting shows a protein as a band on a membrane.

In a further test the test system is ma/ma mice. The experiment in a line: Topical LGK974 cream on Tmem79 ma/ma mice, AD phenotypes. As to conditions: topical cream twice daily, dose to be determined empirically. In kind it is in vivo, mouse. An excerpt: PORCUPINE (PORCN) is an ER acyl-transferase specifically required for biogenesis and secretion of all WNT proteins. A diverse group of small molecules, referred to as IWP2, LGK974, and C59, each binds to and inhibits PORCN, thereby blocking WNT production. LGK974 and C59 are in phase I clinical trials for cancers that rely on autocrine or local WNT production (Proffitt, K. D., et al., Cancer Res, 2013, 73 (2): p. 502-7; Jiang, X., et al., Proc Natl Acad Sci USA, 2013. 110 (31): p. 12649-54). […] 111 (6): p. 2325-30; Apelian, H. M. C., NJ), Coffin-beach, David (Kendall Park, NJ), Huq, Abu S. (Plainsboro, NJ), Pharmaceutical composition of florfenicol, in U.S. Pat. No. 5,082,862, S. Corporation, January 1992; Malook, S. U. N., GB5), Boon, Peter F. G. (Horsham, GB2), Morgan, James P. (Navan, IE), Method of reducing the swelling or pain associated with antibiotics compositions, in U.S. Pat. No. 4,772,460, L. Bimeda Research and Development, September 1988.). […]
ma ma mice in C57BL/6 have been used as a reliable model for human AD and will be housed under the SPF (specific pathogen-free) conditions at BCH, and analyzed at 2, 4, and 8 weeks for skin phenotypes as described (Sasaki, T., et al., J Allergy Clin Immunol, 132 (5): p. 1111-1120 e4, 2013; Saunders, S. P., et al., J Allergy Clin Immunol, 132 (5): p. 1121-9, 2013). […]

For a further test, the system named is Wnt/β-catenin signaling. Kind of test: Top-Flash dual luciferase reporter assay. In kind it is cell-based, human. To be noted: HEK293T cells. As to the method: (§1) Cell culture, immunofluorescence, RNA interference and dual luciferase assay. HEK293T cells (ATCC #CRL-11268) and its derivatives were maintained in DMEM supplemented with 10% FBS, penicillin, and streptomycin. ZRKO (ZNRF3 and RNF43 double knockout) cell line was a gift from F. Cong. The FZD null cell line (Fz1-10 knockout) was a gift from B. Vanhollebeke. For immunofluorescence, HEK293T cells were grown on poly-L-lysine-coated glass coverslips. Cells were transfected with Snap-FZD5 and after 24 hours washed with PBS and fixed with 4% paraformaldehyde for 10 min at room temperature. The cells were labeled with 1 μM SNAP-Surface® 488 (BioLabs) for 15 min at room temperature. To visualize endogenous TMEM79, PDI, TGN46 and EEA1, cells were permeabilized with 0.2% Triton X-100 in PBS for 5 min, blocked with 10% normal goat serum and then incubated with respective antibodies for 1 hour at room temperature followed by incubation with secondary antibodies (Alexa Fluor 594 goat anti-rabbit immunoglobulin and Alexa Fluor 488 goat anti-mouse immunoglobulin, Invitrogen). Cells were mounted in Prolong Diamond Antifade Mountant with DAPI (Thermofisher Scientific) and imaged using a Zeiss LSM700 confocal microscope. siRNA transfection was done using Lipofectamine RNAiMAX (Thermofisher Scientific, #13778075). Duplex siRNAs targeting TMEM79 and ZNRF3 were purchased from Sigma. […]
(In general: Reporter assays use an easily measured gene product as a stand-in for the process of interest.)

The test system of a further test is β-catenin. The experiment in a line: Immunoblot of cytosolic β-catenin after siRNA depletion of TMEM79 or ZNRF3. To be noted: HEK293T cells. In kind it is cell-based, human. Here is the method:
as §1

The test system of test [1] is phosphorylated LRP6 and phosphorylated DVL. Kind of test: Immunoblot of phosphorylated LRP6 and DVL2 in T79KO and ZRKO cells. In kind it is cell-based, human. Here is the method:
as §1

Take `CC(C)C[C@@H](C=O)NC(=O)[C@H](CC(C)C)NC(=O)[C@H](CC(C)C)NC(=O)OCc1ccccc1` [MG132] (Cbz-Leu-Leu-Leu-aldehyde): in the test with FZD5, the “levels of immature and mature forms of FZD5” value (shortened to “levels … of FZD5”) is “did not affect”.

In the case of `Cc1cc(-c2ncc(CC(=O)Nc3ccc(-c4cnccn4)cn3)cc2C)ccn1` [LG974], the “AD phenotypes of ma mice” value with ma/ma mice is reported as “ameliorated”.

Regarding `CO/C1=C\C(C)=C\[C@@H](C)[C@@H](O)[C@@H](C)C/C(C)=C/C=C/[C@H](OC)[C@@H]([C@@H](C)[C@@H](O)[C@H](C)[C@@]2(O)C[C@@H](O)[C@H](C)[C@@H](C(C)C)O2)OC1=O` [Bafilomycin A1], in the test with FZD5, the “TMEM79-induced lysosomal degradation of FZD5” value was “prevented”; the “TMEM79-induced degradation of immature FZD5” value is “inhibited”; the “levels … of FZD5” value was “elevated levels”. In addition, the “TMEM79-induced degradation of immature FZD5” value in the test with FZD5 (listed as Baf A1) is given as “blocked”. For the same compound, the “levels … of FZD5” value in the test with FZD5 (listed as BAF A1) was “increased”.

Take `Cc1ccc2nc(NC(=O)CSc3nc4c(c(=O)n3-c3ccccc3)SCC4)sc2c1` [IWP-2]: the “TOP-Flash reporter induction by USP8C” value in the test with Wnt/β-catenin signaling (USP8C transfected) is recorded as “abolished; also recorded: inhibited”. The “elevated levels of TOP-Flash caused by depletion of TMEM79 or ZNRF3” value in the test on Wnt/β-catenin signaling (siRNA depletion) is listed as “abolished; also recorded: suppressed”. Besides, in the test with β-catenin, the “elevated levels of β-catenin protein caused by depletion of TMEM79 or ZNRF3” value was “prevented; also recorded: suppressed”. Besides, the “elevated levels of phosphorylated LRP6 and phosphorylated DVL” value in test [1] is “inhibited; also recorded: suppressed”.
